Assay results: patent US8961930B2, “Isatin derivatives for use as in vivo imaging agents” (Imperial Innovations Limited, priority 2008, dated 2015)

How the values were obtained:
caspase 8 = target: T1, caspase 8 (Homo sapiens, UniProt Q14790); assay: Fluorimetric in vitro caspase inhibition assay (7-AMC), caspase 8; type: biochemical; conditions: recombinant human caspase 8, 10 μM Ac-IETD-AMC; read-out: Caspase EC50 (nM), 1/6/8: caspase 8
T1 construct: purchased Biomol International, UK
Description: (§1) Recombinant human caspases-1, -3, -6, -7, and -8 and their peptide-specific substrates were purchased from Biomol International, UK Inhibition of the recombinant caspases by non-radioactive isatins was assessed using a fluorometric assay that measures the accumulation of a fluorogenic product, 7-amino-4-methylcoumarin (7-AMC). All assays were performed in 96-well plates at a volume of 200 μl per well. The assays were performed at 37° C. in an appropriate reaction buffer as described below for each caspase. For caspase 1, the buffer comprised of 0.1% CHAPS, 100 mM NaCl, 5 mM 2-mercaptoethanol, 100 mM HEPES (pH 7.4), 2 mM EDTA, 10% sucrose, and 10 μM of the peptide substrate Ac-YVAD-AMC. For caspase 3: 20 mM HEPES (pH 7.4), 10% sucrose, 100 mM NaCl, 0.1% CHAPS, 2 m, mM EDTA, and 10 μM Ac-DEVD-AMC. For caspase 6: 20 mM HEPES (pH 7.4), 10% sucrose, 100 mM NaCl, 0.1% CHAPS, 2 mM EDTA, and 10 μM Ac-VEID-AMC. For caspase 7: 20 mM HEPES (pH 7.4), 10% sucrose, 5 mM 2-mercaptoethanol, 100 mM NaCl, 0.1% CHAPS, 2 mM EDTA, 10 μM Ac-DEVD-AMC. For caspase 8: 20 mM HEPES (pH 7.4), 10% sucrose, 100 mM NaCl, 0.1% CHAPS, 2 mM EDTA, and 10 μM Ac-IETD-AMC. The Buffers contained non-radioactive isatins in DMSO at a final concentration of 500, 50, 5 μM; 500, 50, 5 nM; 500, 50, 5 pM; the final concentration of DMSO in all wells was 5% of the total volume. Recombinant caspases were used at 0.5 units per assay (˜500 pmol substrate converted per h). All reagents except the peptide substrate were pre-incubated for 10 min. The peptide substrate (final concentration 10 μM) was then added and the plate was incubated for a further 30 min; 30 min was selected after initial linearity study where reaction was assessed after 10, 30, 60 or 90 min. The 30 min time point was selected. Respective control wells contained all reaction components without enzyme. The amount of 7-AMC produced was measured on a fluorescence microplate reader (Victor2; Perkin-Elmer Life sciences) at excitation and emission wavelengths of 355 nm and 460 nm, respectively. The concentration of isatin that inhibits the caspase activity by 50% (EC50) was estimated by non-linear regression analysis using GraphPad Prism (Version 4.0 for Windows, GraphPad Software, San Diego Calif. USA). All the isatins were analyzed in duplicate; the assays were repeated once. Known compounds 13-16 were included as reference compounds.
(§2) The data are the average for two runs, each of which was duplicated, at nine concentrations ranging from 5 pM to 500 μM; the drug concentration required to inhibit each enzyme by 50% (EC50) was obtained from nonlinear regression analysis of the inhibition profiles.

caspase 1 = target: T2, caspase 1 (Homo sapiens, UniProt P29466); assay: Fluorimetric in vitro caspase inhibition assay (7-AMC), caspase 1; type: biochemical; conditions: recombinant human caspase 1, 10 μM Ac-YVAD-AMC; read-out: Caspase EC50 (nM), 1/6/8: caspase 1
T2 construct: purchased Biomol International, UK
T2 sequence (P29466 120-297 limits assumed): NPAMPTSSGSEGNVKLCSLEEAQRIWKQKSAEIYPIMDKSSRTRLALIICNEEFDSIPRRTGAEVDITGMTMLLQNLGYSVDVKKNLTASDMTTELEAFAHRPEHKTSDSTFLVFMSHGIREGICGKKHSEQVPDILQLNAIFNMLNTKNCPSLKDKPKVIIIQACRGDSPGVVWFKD
T2 sequence (P29466 317-404 limits assumed): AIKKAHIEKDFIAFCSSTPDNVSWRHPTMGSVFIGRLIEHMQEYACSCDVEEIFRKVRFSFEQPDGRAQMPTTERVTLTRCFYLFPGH
Description: as §1, §2

caspase 7 = target: T3, caspase 7 (Homo sapiens, UniProt P55210); assay: Fluorimetric in vitro caspase inhibition assay (7-AMC), caspase 7; type: biochemical; conditions: recombinant human caspase 7, 10 μM Ac-DEVD-AMC
T3 construct: purchased Biomol International, UK
T3 sequence (P55210 24-198 limits assumed): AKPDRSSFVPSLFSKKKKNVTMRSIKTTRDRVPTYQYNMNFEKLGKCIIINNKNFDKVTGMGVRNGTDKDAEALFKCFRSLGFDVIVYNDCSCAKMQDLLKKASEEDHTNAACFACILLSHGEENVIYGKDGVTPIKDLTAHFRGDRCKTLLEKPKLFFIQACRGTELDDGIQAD
T3 sequence (P55210 207-303 limits assumed): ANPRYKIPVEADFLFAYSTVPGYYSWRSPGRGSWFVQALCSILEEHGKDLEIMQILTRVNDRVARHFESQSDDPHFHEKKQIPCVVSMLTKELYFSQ
Description: as §1, §2

caspase 6 = target: T4, caspase 6 (Homo sapiens, UniProt P55212); assay: Fluorimetric in vitro caspase inhibition assay (7-AMC), caspase 6; type: biochemical; conditions: recombinant human caspase 6, 10 μM Ac-VEID-AMC; read-out: Caspase EC50 (nM), 1/6/8: caspase 6
T4 construct: purchased Biomol International, UK
T4 sequence (P55212 24-179 limits assumed): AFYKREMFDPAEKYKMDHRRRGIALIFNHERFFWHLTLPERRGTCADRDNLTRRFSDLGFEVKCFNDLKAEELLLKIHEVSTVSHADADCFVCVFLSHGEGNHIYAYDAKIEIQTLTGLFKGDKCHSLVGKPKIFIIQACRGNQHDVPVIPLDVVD
T4 sequence (P55212 194-293 limits assumed): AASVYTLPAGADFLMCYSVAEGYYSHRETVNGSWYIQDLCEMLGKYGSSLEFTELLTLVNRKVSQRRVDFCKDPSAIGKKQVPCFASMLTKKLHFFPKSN
Description: as §1, §2

38C13 lymphoma cells = assay: Binding in 38C13 lymphoma cells undergoing treatment-induced apoptosis; type: cell-based, murine; conditions: 38C13 cells, 4-HC 1 μg/mL 24 h
Description: (left panel). Chemical structure and [^18F]11 binding in 38C13 lymphoma cells treated with 4-hydroperoxycyclophosphamide 4-HC (4-HC; 1 μg/mL; 24 h) to induce apoptosis. For all treated and control samples, radioactivity data were expressed as decay-corrected counts per milligram of total cellular protein. (right panel) The effect of 4-HC on the binding of the low affinity probe, [^18F]42, in 38C13 lymphoma cells. Data are mean±s.e.m.
A further aspect of the project has involved analysis of the weak isatin caspase-3 inhibitor N-[1-(2-Fluoroethyl)-1H-[1,2,3]-triazol-4-yl]isatin (compound 42). […] However, [^18F]42 lacks the pyrrolidine sulphonamide functionality that confers high affinity and selectivity for caspase-3. [^18F]42 was investigated in cell uptake assays for direct comparison with [^18F]11. The purpose of this was to examine the uptake profiles of the compounds in an effort to determine if uptake was the result of increased cell permeability, a characteristic trait of apoptotic cells, or the result of caspase-3 binding. Unlike [^18F]11, there was no increase in [^18F]42 binding following drug treatment (see FIG. 26), supporting the notion that [^18F]11 binding is due to caspase 3 activation.

[1] = In vivo metabolism studies, radio-HPLC of plasma, liver and urine; design: species or system C3H/hej mice
Description: [^18F]11 was injected intravenously into tumor-bearing mice and its tissue distribution was measured in selected tissues at 2, 15 and 60 min after injection. […] Furthermore, the in vivo metabolic stability of the radiotracer was determined from plasma and liver samples and, for [^18F]11, in urine samples.
In vivo metabolism studies were also performed in C3H/hej mice. […] Plasma, liver and urine samples were snap-frozen in liquid nitrogen and kept in pre-weighed scintillation counting tubes on dry ice prior to analysis.
Immediately prior to extraction the samples were thawed and placed on ice. For extraction, ice cold acetonitrile (1.5 mL) was added to plasma (0.2 mL); S9 incubation samples (3 mL) containing acetonitrile were also analysed. Each mixture was centrifuged (15493×g, 4° C., 3 min) and the resulting supernatant was evaporated to dryness under vacuum at 40° C. using a rotary evaporator. Liver samples were homogenized with ice cold acetonitrile (1.5 mL) using an IKA Ultra-Turrax T-25 homogeniser prior to centrifugation. The residues were then re-suspended in HPLC mobile phase (1.2 mL) and filtered through a Minisart hydrophilic syringe filter (0.2 μm) (Sartorius, Goettingen, Germany). Urine samples were diluted with HPLC mobile phase, filtered as above. The samples (1 mL) were then analyzed by radio-HPLC on an Agilent 1100 series HPLC system (Agilent Technologies, Stockport, UK) equipped with a γ-RAM Model 3 gamma-detector and the Laura software (IN/US Systems inc., Florida, USA).
The stationary phase comprised of a Waters μBondapak C18 reverse-phase column (300×7.8 mm). […] Furthermore, to assess the fraction of [^18F]9-derived radioactivity associated with the plasma and liver pellets after extraction versus that remaining in the HPLC injectate, the total volume of HPLC injectate was recorded and an aliquot (0.1 mL) removed for counting. The radioactivity in the 0.1 mL aliquot and the pellet were then analyzed by gamma counting (Packard Instruments).

[2] = In vivo biodistribution studies (Example 5); design: species or system C3H/hej mice; conditions: mice, i.v., 2-60 min
Description: The stability of novel compound [^18F]11 and known compound [^125I]14 in plasma and liver was measured over time following administration in mice. [^18F]11 was injected intravenously into tumor-bearing mice and its tissue distribution was measured in selected tissues at 2, 15 and 60 min after injection. [^125I]14 was injected intravenously into non-tumour bearing mice and its tissue distribution was measured at selected time points from 2 to 60 minutes after injection. Furthermore, the in vivo metabolic stability of the radiotracer was determined from plasma and liver samples and, for [^18F]11, in urine samples.
The radiation-induced murine fibrosarcoma (RIF-1) tumour cells^20 were maintained in RPMI 1640 medium (Invitrogen Ltd, Paisley, UK) supplemented with 10% fetal calf serum (BioWhittaker Europe Ltd, Verviers, Belgium), 2 mM L-glutamine, 100 U/mL penicillin, 100 μg/mL streptomycin and 0.25 μg/mL fungizone (Gibco, UK) at 37° C. in a humidified incubator with 5% CO2. All animal work was done by licensed investigators in accordance with the United Kingdom's “Guidance on the Operation of Animals (Scientific Procedures) Act 1986” (HMSO, London, United Kingdom, 1990) and in full compliance with government regulations and guidelines on the welfare of animals in experimental neoplasia^21. Tumors were established in mice by subcutaneous injection of 5×10^5 cells on the back of male C3H/hej mice (Harlan, Bicester, Oxfordshire, UK). Tumour growth was monitored every two days using electronic callipers, and tumor volume estimated using the equation (π/6)×L×W×D (L=length, W=width and D=depth). Animals were selected for biodistribution studies of [^18F]11 when the tumors reached ˜100-150 mm^3; biodistribution of [^125I]14 was done in non-tumor-bearing mice.
Mice were injected intravenously via the lateral vein with 0.08-0.13 mL of radioactivity (˜0.37 MBq of [^125I]14 or 3.7 MBq of [^18F]11) dissolved in phosphate buffered saline. At selected times after injection (2-60 min) mice were sacrificed by exsanguination via cardiac puncture under general anesthesia (isofluorane inhalation). Aliquots of heparinised blood were rapidly centrifuged (2000 g for 5 minutes) to obtain plasma. The radioactivity contained in tissues was determined by gamma-counting on a Cobra II Auto-Gamma counter (Packard Instruments, Meriden, Conn., USA) and expressed as a percentage of injected dose per gram of tissue (% ID/g). A minimum of three mice was used for each time point. All animals were treatment-naïve.

T1 sequence (Q14790 217-374 limits assumed): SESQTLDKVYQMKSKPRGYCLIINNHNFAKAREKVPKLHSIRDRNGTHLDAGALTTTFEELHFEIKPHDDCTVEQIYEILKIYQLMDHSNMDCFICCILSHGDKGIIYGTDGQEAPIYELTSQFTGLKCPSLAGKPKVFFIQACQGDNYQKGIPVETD
T1 sequence (Q14790 385-479 limits assumed): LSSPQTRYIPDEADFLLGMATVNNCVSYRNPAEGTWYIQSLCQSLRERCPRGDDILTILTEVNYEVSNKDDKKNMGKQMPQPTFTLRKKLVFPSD

Q: Which results are given for `O=C1C(=O)N(Cc2ccc(F)cc2)c2ccc(S(=O)(=O)N3CCC[C@H]3COc3cc(F)cc(F)c3)cc21` [Compound 3, (S)-1-(4-Fluorobenzyl)-5-(2-(3,5-difluorophenoxymethyl)-pyrrolidine-1-sulfonyl)isatin]?
A: EC50 (caspase 8): > 5000 nM; EC50 (caspase 1): > 5000 nM; EC50 (caspase 7): 16.8 nM; EC50 (caspase 6): > 5000 nM

Q: With `O=C1C(=O)N(c2cn(CCF)nn2)c2ccccc21` [[^18F]42, N-[1-(2-Fluoroethyl)-1H-[1,2,3]-triazol-4-yl]isatin] as the compound, how does the “binding following drug treatment” value (38C13 lymphoma cells) read?
A: no increase

Q: With `O=C1C(=O)N(Cc2ccc(I)cc2)c2ccc(S(=O)(=O)N3CCC[C@H]3COc3ccccc3)cc21` [[^125I]14, (S)-1-(4-iodobenzyl)-5-(2-phenoxymethyl-pyrrolidine-1-sulfonyl)isatin, reference compound] as the compound, how does the “parent as share of the radioactivity detected in the liver” value ([1]; 10 min after injection, n=3) read?
A: < 15%

Q: What about the “time until parent fully metabolized in the liver” value ([1]; mice, after injection) of the same compound?
A: ≤ 30 min

Q: And the “time to complete elimination of parent from plasma” value ([1]; mice, i.v.)?
A: ≤ 10 min

Q: What about the “tissue distribution and elimination” value [2] of the same compound?
A: distributed rapidly to the major organs and was also rapidly eliminated
